Source: article PMC11079024, “Identification of a family of species-selective complex I inhibitors as potential anthelmintics” (Nature Communications, 2024)
Values joined by “and” are separate entries in the source; they are usually repeats but may differ in a detail not shown here. Equal entries are not always repeated. Where two headings read alike, the source gives them in different places.

How the values were obtained:
P. pacificus complex I = P. pacificus complex I (Pristionchus pacificus, UniProt A0A454XZ18+A0A8R1Z3U8+A4UAP3); experiment: In vitro complex I activity assay, P. pacificus mitochondria; type: biochemical
Method: (§1) Mitochondria were isolated from the following free-living nematode strains: C. elegans—N2, CB3474, ECA882, ECA917, ECA1075, ECA1080; C. briggsae—AF16; P. pacificus—PS312; and P. hermaphrodita—B178. With the exception of the P. hermaphrodita strain B178, adult worms of each strain were grown in bulk through liquid culture to obtain mitochondria in sufficient quantities. Due to poor growth in liquid media, mixed stage populations of P. hermaphrodita were washed off and collected from NGM plates seeded with OP50. The isolation of mitochondria from all free-living nematode strains followed the protocol previously outlined in Burns et al.[24]. In brief, a 1 L saturated culture of E. coli HB101 was concentrated 20-fold in 50 mL complete S-medium. ~500,000 L1 worms synchronized from an embryo preparation performed the day prior were added to the S-media/HB101 suspension and grown to adulthood over the course of 3.5 days at 20 °C with shaking at 165 rpm. Following growth, worms were collected in 10 ×15 mL conical tubes and washed 7 times in M9 buffer. Worm suspensions were then combined into a single 15 mL conical tube and diluted to a final volume of 15 mL with M9 buffer. 1 mL aliquots of worm suspension were then distributed to 15 × 1.5 mL screw-cap microcentrifuge tubes and were pelleted at 500 g for 1 min. Excess M9 was aspirated without disturbing the worm pellet. 600 μL ice-cold isolate buffer A (250 mM sucrose, 10 mM Tris (pH 7.5), 1 mM EDTA, 1 mM PMSF (freshly prepared)) and 300 μL cold glass beads were then added to each tube. Tubes were incubated on ice for 10 min, and the worms were then lysed by bead beating (6 x 30 s, with 1 min cooling intervals). Tubes containing worm lysate were centrifuged at 1,000 g for 10 min at 4 °C and the supernatant was transferred to 15 new microcentrifuge tubes on ice. The tubes were centrifuged a second time at 1,000 g for 10 min at 4 °C and the supernatant was once again transferred to 15 new microcentrifuge tubes on ice. These tubes were then centrifuged at 16,000 g for 10 min at 4 °C. The resulting mitochondrial pellet was washed twice by re-suspension in 300 μL of ice-cold isolate buffer B (250 mM sucrose, 10 mM Tris (pH 7.5), 1 mM EDTA). Following the final wash, isolation buffer was aspirated from each tube and the pellets were flash-frozen in ethanol/dry ice and stored at −80 °C until needed.
(§2) The enzymatic activities of individual ETC complexes (I-IV) were assessed spectrophotometrically in isolated mitochondria using a Varioskan LUX Multimode plate reader (ThermoFisher Scientific). Mitochondrial pellets previously isolated were thawed on ice and resuspended in ice-cold isolation buffer (250 mM sucrose, 10 mM Tris (pH 7.5), 1 mM EDTA). The BCA assay (Walker, 1994) was used to quantify the protein concentration of mitochondria suspensions; solutions were diluted to a concentration of 0.2 mg/mL for use in all assays. For the complex I assay, mitochondria pellets were freeze-thawed on ice three times to increase enzyme accessibility. […] 20 μL mitochondria suspension was then added/mixed with a pipette to initiate the reaction. Immediately following the addition of mitochondria, absorbance was measured (complex I and II: 600 nm; complex III and IV: 550 nm) in 30 s intervals over 15 min. Enzymatic activity was determined in each reaction by plotting absorbance versus time and calculating the slope of the curve during the initial linear phase of the reaction. […] Percent activity of each complex was calculated by dividing the enzyme-specific activity of each well by the enzyme-specific activity of the corresponding solvent controls.
(§3) Chemical solutions were prepared in complex I assay buffer composed of 25 mM KPi buffer (pH 7.5), 3 mg/mL bovine serum albumin (BSA), 80 μM NADH, 60 μM decylubiquinone, 160 μM DCIP, 2 μM antimycin A and 2 mM KCN. […]

[1] = system: P. hermaphrodita complex I; experiment: In vitro complex I activity assay, P. hermaphrodita mitochondria; type: biochemical, Phasmarhabditis hermaphrodita; details: for in vitro complex I activity relative to solvent control: P. hermaphrodita mitochondria
Method: as §1, §2, §3

Cc1nc2ccccc2n1Cc1ccc(Cl)cc1 [STK697993]
remaining activity at 0.0001 µM (P. pacificus complex I; P. pacificus mitochondria, 0.0001 µM, Mean, read-out: in vitro complex I activity relative to solvent control): 94.6%
in vitro complex I activity relative to solvent control (P. pacificus complex I; P. pacificus mitochondria, 0.0001 µM, single replicate): 101.484% and 94.523%
remaining activity at 0.0001 µM (P. pacificus complex I; P. pacificus mitochondria, 0.0001 µM, single replicate, read-out: in vitro complex I activity relative to solvent control): 87.6%
remaining activity at 0.0005 µM (P. pacificus complex I; P. pacificus mitochondria, 0.0005 µM, Mean, read-out: in vitro complex I activity relative to solvent control): 77.4%
in vitro complex I activity relative to solvent control (P. pacificus complex I; P. pacificus mitochondria, 0.0005 µM, single replicate): 88.361% and 49.299%
remaining activity at 0.001 µM (P. pacificus complex I; P. pacificus mitochondria, 0.001 µM, Mean, read-out: in vitro complex I activity relative to solvent control): 107%
in vitro complex I activity relative to solvent control (P. pacificus complex I; P. pacificus mitochondria, 0.001 µM, single replicate): 104.362% and 121.410% and 94.602%
remaining activity at 0.0025 µM (P. pacificus complex I; P. pacificus mitochondria, 0.0025 µM, Mean, read-out: in vitro complex I activity relative to solvent control): 102%
in vitro complex I activity relative to solvent control (P. pacificus complex I; P. pacificus mitochondria, 0.0025 µM, single replicate): 89.591% and 126.458% and 89.566%
remaining activity at 0.005 µM (P. pacificus complex I; P. pacificus mitochondria, 0.005 µM, Mean, read-out: in vitro complex I activity relative to solvent control): 96.6%
in vitro complex I activity relative to solvent control (P. pacificus complex I; P. pacificus mitochondria, 0.005 µM, single replicate): 89.435% and 110.953% and 89.424%
remaining activity at 0.013 µM (P. pacificus complex I; P. pacificus mitochondria, 0.013 µM, Mean, read-out: in vitro complex I activity relative to solvent control): 82.8%
in vitro complex I activity relative to solvent control (P. pacificus complex I; P. pacificus mitochondria, 0.013 µM, single replicate): 85.370% and 80.753%
remaining activity at 0.013 µM (P. pacificus complex I; P. pacificus mitochondria, 0.013 µM, single replicate, read-out: in vitro complex I activity relative to solvent control): 82.3%
remaining activity at 0.025 µM (P. pacificus complex I; P. pacificus mitochondria, 0.025 µM, Mean, read-out: in vitro complex I activity relative to solvent control): 81.8%
in vitro complex I activity relative to solvent control (P. pacificus complex I; P. pacificus mitochondria, 0.025 µM, single replicate): 78.182% and 98.911% and 68.184%
remaining activity at 0.063 µM (P. pacificus complex I; P. pacificus mitochondria, 0.063 µM, Mean, read-out: in vitro complex I activity relative to solvent control): 55.6%
in vitro complex I activity relative to solvent control (P. pacificus complex I; P. pacificus mitochondria, 0.063 µM, single replicate): 59.066% and 53.138%
remaining activity at 0.063 µM (P. pacificus complex I; P. pacificus mitochondria, 0.063 µM, single replicate, read-out: in vitro complex I activity relative to solvent control): 54.5%
remaining activity at 0.125 µM (P. pacificus complex I; P. pacificus mitochondria, 0.125 µM, Mean, read-out: in vitro complex I activity relative to solvent control): 36.1%
in vitro complex I activity relative to solvent control (P. pacificus complex I; P. pacificus mitochondria, 0.125 µM, single replicate): 35.771% and 33.806%
remaining activity at 0.125 µM (P. pacificus complex I; P. pacificus mitochondria, 0.125 µM, single replicate, read-out: in vitro complex I activity relative to solvent control): 38.7%
remaining activity at 0.313 µM (P. pacificus complex I; P. pacificus mitochondria, 0.313 µM, Mean, read-out: in vitro complex I activity relative to solvent control): 20.5%
in vitro complex I activity relative to solvent control (P. pacificus complex I; P. pacificus mitochondria, 0.313 µM, single replicate): 25.713% and 19.065%
remaining activity at 0.313 µM (P. pacificus complex I; P. pacificus mitochondria, 0.313 µM, single replicate, read-out: in vitro complex I activity relative to solvent control): 16.8%
remaining activity at 0.625 µM (P. pacificus complex I; P. pacificus mitochondria, 0.625 µM, Mean, read-out: in vitro complex I activity relative to solvent control): 17.3%
in vitro complex I activity relative to solvent control (P. pacificus complex I; P. pacificus mitochondria, 0.625 µM, single replicate): 22.397% and 7.371% and 22.004%
remaining activity at 1.5 µM (P. pacificus complex I; P. pacificus mitochondria, 1.5 µM, Mean, read-out: in vitro complex I activity relative to solvent control): 18.5%
in vitro complex I activity relative to solvent control (P. pacificus complex I; P. pacificus mitochondria, 1.5 µM, single replicate): 23.927% and 2.400% and 29.263%
remaining activity at 3 µM (P. pacificus complex I; P. pacificus mitochondria, 3 µM, Mean, read-out: in vitro complex I activity relative to solvent control): 15.2%
in vitro complex I activity relative to solvent control (P. pacificus complex I; P. pacificus mitochondria, 3 µM, single replicate): 21.335% and 0.000% and 24.340%
remaining activity at 15 µM (P. pacificus complex I; P. pacificus mitochondria, 15 µM, Mean, read-out: in vitro complex I activity relative to solvent control): 7.59%
in vitro complex I activity relative to solvent control (P. pacificus complex I; P. pacificus mitochondria, 15 µM, single replicate): 11.369% and 0.506% and 10.901%
remaining activity at 37.5 µM (P. pacificus complex I; P. pacificus mitochondria, 37.5 µM, Mean, read-out: in vitro complex I activity relative to solvent control): 7.5%
in vitro complex I activity relative to solvent control (P. pacificus complex I; P. pacificus mitochondria, 37.5 µM, single replicate): 6.933% and 4.878% and 10.703%
remaining activity at 75 µM (P. pacificus complex I; P. pacificus mitochondria, 75 µM, Mean, read-out: in vitro complex I activity relative to solvent control): 4.35%
in vitro complex I activity relative to solvent control (P. pacificus complex I; P. pacificus mitochondria, 75 µM, single replicate): 3.580% and 5.152%
remaining activity at 75 µM (P. pacificus complex I; P. pacificus mitochondria, 75 µM, single replicate, read-out: in vitro complex I activity relative to solvent control): 4.33%
IC50 (P. pacificus complex I; purified mitochondria): 0.07 µM
in vitro complex I activity relative to solvent control ([1]; 0.0001 µM, Mean): 89.612%
in vitro complex I activity relative to solvent control ([1]; 0.0001 µM, single replicate): 93.319% and 105.139% and 70.379%
in vitro complex I activity relative to solvent control ([1]; 0.0005 µM, Mean): 95.634%
in vitro complex I activity relative to solvent control ([1]; 0.0005 µM, single replicate): 119.766% and 92.855% and 74.280%
in vitro complex I activity relative to solvent control ([1]; 0.001 µM, Mean): 90.469%
in vitro complex I activity relative to solvent control ([1]; 0.001 µM, single replicate): 96.266% and 129.304% and 45.836%
in vitro complex I activity relative to solvent control ([1]; 0.0025 µM, Mean): 83.278%
in vitro complex I activity relative to solvent control ([1]; 0.0025 µM, single replicate): 64.388% and 114.111% and 71.337%
in vitro complex I activity relative to solvent control ([1]; 0.005 µM, Mean): 110.209%
in vitro complex I activity relative to solvent control ([1]; 0.005 µM, single replicate): 99.329% and 145.962% and 85.335%
in vitro complex I activity relative to solvent control ([1]; 0.013 µM, Mean): 102.008%
in vitro complex I activity relative to solvent control ([1]; 0.013 µM, single replicate): 103.702% and 118.527% and 83.796%
in vitro complex I activity relative to solvent control ([1]; 0.025 µM, Mean): 81.894%
in vitro complex I activity relative to solvent control ([1]; 0.025 µM, single replicate): 82.152% and 107.849% and 55.682%
in vitro complex I activity relative to solvent control ([1]; 0.063 µM, Mean): 53.328%
in vitro complex I activity relative to solvent control ([1]; 0.063 µM, single replicate): 61.601% and 65.149% and 33.235%
in vitro complex I activity relative to solvent control ([1]; 0.125 µM, Mean): 31.057%
in vitro complex I activity relative to solvent control ([1]; 0.125 µM, single replicate): 37.073% and 51.097% and 5.000%
in vitro complex I activity relative to solvent control ([1]; 0.313 µM, Mean): 8.632%
in vitro complex I activity relative to solvent control ([1]; 0.313 µM, single replicate): 10.235% and 15.661% and 0.000%
in vitro complex I activity relative to solvent control ([1]; 0.625 µM, Mean): 5.779%
in vitro complex I activity relative to solvent control ([1]; 0.625 µM, single replicate): 0.000% and 9.493% and 7.843%
in vitro complex I activity relative to solvent control ([1]; 1.5 µM, Mean): 4.860%
in vitro complex I activity relative to solvent control ([1]; 1.5 µM, single replicate): 0.000% and 2.483% and 12.098%
in vitro complex I activity relative to solvent control ([1]; 3 µM, Mean): 2.448%
in vitro complex I activity relative to solvent control ([1]; 3 µM, single replicate): 0.000% and 7.344%
in vitro complex I activity relative to solvent control ([1]; 15 µM, Mean): 12.306%
in vitro complex I activity relative to solvent control ([1]; 15 µM, single replicate): 12.065% and 18.802% and 6.051%
in vitro complex I activity relative to solvent control ([1]; 37.5 µM, Mean): 7.732%
in vitro complex I activity relative to solvent control ([1]; 37.5 µM, single replicate): 0.065% and 16.547% and 6.585%
in vitro complex I activity relative to solvent control ([1]; 75 µM, Mean): 3.784%
in vitro complex I activity relative to solvent control ([1]; 75 µM, single replicate): 0.000% and 11.350%
IC50 ([1]; purified mitochondria): 0.0703 µM
